In ChEMBL document CHEMBL3860095, “1H-1,2,3-Triazolyl-substituted 1,3,4-oxadiazole derivatives containing structural features of ibuprofen/naproxen: Their synthesis and antibacterial evaluation” (2016):

Columns and labels:
Format in all cases: functional
Details in all cases: read-out: DIZ
Escherichia coli [1] = experiment: Antibacterial activity against clinical isolates of Escherichia coli at 0.5 mg after overnight incubation by agar well diffusion method
Bacillus subtilis = experiment: Antibacterial activity against clinical isolates of Bacillus subtilis at 0.5 mg after overnight incubation by agar well diffusion method
[2] = test system: Staphylococcus epidermidis; experiment: Antibacterial activity against clinical isolates of Staphylococcus epidermidis at 0.5 mg after overnight incubation by agar well diffusion method
Staphylococcus aureus [3] = experiment: Antibacterial activity against clinical isolates of Staphylococcus aureus at 0.5 mg after overnight incubation by agar well diffusion method
Klebsiella pneumoniae [4] = experiment: Antibacterial activity against clinical isolates of Klebsiella pneumoniae at 0.5 mg after overnight incubation by agar well diffusion method
Pseudomonas aeruginosa [5] = experiment: Antibacterial activity against clinical isolates of Pseudomonas aeruginosa at 0.5 mg after overnight incubation by agar well diffusion method
Klebsiella pneumoniae [6] = experiment: Antibacterial activity against clinical isolates of Klebsiella pneumoniae at 0.05 mg after overnight incubation by agar well diffusion method
Staphylococcus aureus [7] = experiment: Antibacterial activity against clinical isolates of Staphylococcus aureus at 0.05 mg after overnight incubation by agar well diffusion method
Pseudomonas aeruginosa [8] = experiment: Antibacterial activity against clinical isolates of Pseudomonas aeruginosa at 0.05 mg after overnight incubation by agar well diffusion method
Escherichia coli [9] = experiment: Antibacterial activity against clinical isolates of Escherichia coli at 0.05 mg after overnight incubation by agar well diffusion method

| Structure (SMILES) | zone of inhibition at 500 µg/disc (Escherichia coli [1]) | zone of inhibition at 500 µg/disc (Bacillus subtilis) | zone of inhibition at 500 µg/disc [2] | zone of inhibition at 500 µg/disc (Staphylococcus aureus [3]) | zone of inhibition at 500 µg/disc (Klebsiella pneumoniae [4]) | zone of inhibition at 500 µg/disc (Pseudomonas aeruginosa [5]) | zone of inhibition at 50 µg/disc (Klebsiella pneumoniae [6]) | zone of inhibition at 50 µg/disc (Staphylococcus aureus [7]) | zone of inhibition at 50 µg/disc (Pseudomonas aeruginosa [8]) | zone of inhibition at 50 µg/disc (Escherichia coli [9]) |
| --- | --- | --- | --- | --- | --- | --- | --- | --- | --- | --- |
| COc1ccc2cc([C@H](C)c3nnc(SCc4cn(CC(=O)Nc5c(C)cccc5C)nn4)o3)ccc2c1 | 11 mm | 15 mm | 12 mm | 13 mm | 9 mm | 11 mm | – | – | – | – |
| COc1ccc2cc([C@H](C)c3nnc(SCc4cn(-c5ccccc5)nn4)o3)ccc2c1 | 13 mm | 14 mm | 15 mm | 14 mm | 12 mm | 12 mm | – | – | – | – |
| COc1ccc2cc([C@H](C)c3nnc(SCc4cn(CC(=O)Nc5cccc(Cl)c5)nn4)o3)ccc2c1 | 12 mm | 14 mm | 11 mm | 12 mm | 10 mm | 13 mm | – | – | – | – |
| COc1ccc2cc([C@H](C)c3nnc(SCc4cn(CC(=O)Nc5ccccc5Cl)nn4)o3)ccc2c1 | 13 mm | 15 mm | 16 mm | 15 mm | 14 mm | 14 mm | – | – | – | – |
| COc1ccc2cc([C@H](C)c3nnc(SCc4cn(CC(=O)Nc5ccccc5C)nn4)o3)ccc2c1 | 10 mm | 12 mm | 15 mm | 13 mm | 13 mm | 14 mm | – | – | – | – |
| CC(C)Cc1ccc(C(C)c2nnc(SCc3cn(CC(=O)Nc4cccc(Cl)c4)nn3)o2)cc1 (racemic) | 12 mm | 12 mm | 13 mm | 14 mm | 11 mm | 15 mm | – | – | – | – |
| Cc1ccccc1NC(=O)Cn1cc(CSc2nnc(C(C)c3ccc(CC(C)C)cc3)o2)nn1 (racemic) | 13 mm | 11 mm | 13 mm | 13 mm | 13 mm | 14 mm | – | – | – | – |
| CC(C)Cc1ccc(C(C)c2nnc(SCc3cn(-c4ccccc4)nn3)o2)cc1 (racemic) | 10 mm | 11 mm | 9 mm | 10 mm | 10 mm | 11 mm | – | – | – | – |
| CC(C)Cc1ccc(C(C)c2nnc(SCc3cn(CC(=O)Nc4ccccc4[N+](=O)[O-])nn3)o2)cc1 (racemic) | 11 mm | 10 mm | 10 mm | 11 mm | 9 mm | 9 mm | – | – | – | – |
| CC(C)Cc1ccc(C(C)c2nnc(SCc3cn(CC(=O)Nc4ccc(Cl)cc4)nn3)o2)cc1 (racemic) | 15 mm | 16 mm | 15 mm | 11 mm | 15 mm | 14 mm | – | – | – | – |
| NCC[C@H](O)C(=O)N[C@@H]1C[C@H](N)[C@@H](O[C@H]2O[C@H](CN)[C@@H](O)[C@H](O)[C@H]2O)[C@H](O)[C@H]1O[C@H]1O[C@H](CO)[C@@H](O)[C@H](N)[C@H]1O [AMIKACIN] | – | – | – | – | – | – | 23 mm | 23 mm | 22 mm | 20 mm |
